Laboratory results published in patent US20160096016A1, “METHODS AND SYSTEMS FOR REDUCING INFLAMMATION BY NEUROMODULATION AND ADMINISTRATION OF AN ANTI-INFLAMMATORY DRUG” (priority 2008, published 2016).
Entries after “also recorded” stand apart in the source; their conditions may differ.

What was measured:
TNF production = conditions: endotoxemia; nicotine 2 mg/kg i.p. 30 minutes prior to endotoxin
Procedure: Adult male BALB/c mice 8 to 12 weeks-old (20-25 g; Taconic) and adult male Sprague Dawley rats 8 to 12 weeks-old (250-300 g, Charles River Laboratories) were housed at 25° C. on a 12-hour light/dark cycle, and let acclimatize for one week before experiments were conducted. Water and regular rodent chow were available ad libitum. Experiments were performed under protocols approved by the Institutional Animal Care and Use Committee of the Feinstein Institute for Medical Research, North Shore-LIJ Health System.
Endotoxin (LPS from E. coli, 0111:B4, Sigma-Aldrich) was injected to animals (10 mg/kg, i.p. corresponding to a LD75 dose). Blood and spleens were harvested 10, 30, 60 or 120 minutes after LPS administration. We used ELISA to determine TNF concentration in serum (R&D Systems). Spleens were either snap frozen for further immunofluorescence analysis or disrupted in PBS plus protease inhibitor cocktail (Complete mini, Roche) with a tissue homogenizer (Polytron 3100, Kinematica). TNF content in spleen tissue was determined by ELISA and normalized to protein concentration (Protein Assay, BioRad). In some experiments, PBS or nicotine (Sigma-Aldrich) was injected 30 minutes (2 mg/kg, i.p.) prior to endotoxin administration. Animals were then euthanized 60 minutes later and spleens were harvested for TNF immunofluorescence or TNF quantification in tissue homogenates.

spleen cells = assay: Viability of LPS-stimulated spleen cells; conditions: concentrations of Paraoxon used in FIG. 7A; FIG. 7B
Procedure: (§1) In this example, differing concentrations of Paraoxon were included in various individual wells (having 5×10^6 cell/well) with a total volume of 250 microliters/well, and stimulated for 4 hours with LPS (500 ng/mL).

[1] = test system: LPS-stimulated spleen cells; assay: TNF production by LPS-stimulated spleen cells; format: cell-based, BALB/c mice; conditions: 5×10^6 cell/well, LPS 500 ng/mL, 4 hours; increasing concentrations; FIG. 7A
Procedure: as §1

Structure (SMILES) | TNF production by TNF-producing splenic macrophages (TNF production) | toxicity / cell viability (spleen cells) | TNF production by LPS-stimulated spleen cells [1]
CN1CCCC1c1cccnc1 (stereo not drawn) [nicotine] | significantly attenuates TNF production |  | 
CCOP(=O)(OCC)Oc1ccc([N+](=O)[O-])cc1 [Paraoxon] |  | no significant toxicity; also recorded: without affecting cell viability; also recorded: no significant loss of viability | dose-dependent inhibition of TNF; also recorded: dose-dependently attenuated TNF levels; also recorded: the greater the inhibition of TNF
